Results as given in patent US20110124715A1, “Antiviral Oligonucleotides Having a Conserved G4 Core Sequence” (priority 1992, published 2011).
Where “and” joins values, the source holds several entries; their conditions need not be identical. Identical values can stand only once. Strand notation (5' to 3'): a small letter for the sugar, then the base; units joined by * are phosphorothioate-linked, units joined directly phosphodiester-linked; [ ] holds rarer units or linkages, { } end groups; capitals alone tell only the bases. [I] = hypoxanthine (inosine); d = 2'-deoxy (DNA)

Tests used:
[1] = biological target: T1, human type II phospholipase A2 (Homo sapiens, UniProt P14555); experiment: Phospholipase A2 assay, 3H-oleic acid labelled E. coli substrate; format: biochemical; conditions: for I.C.50 relative to ISIS 3196: b86, fold higher; for effect on substrate kinetics: increasing amounts of E. coli substrate, ISIS 3481 at 0.2 μM and 2 μM; for % Inhibition (1 μM) / inhibition of enzyme activity: 1 μM
T1 sequence (P14555 21-144): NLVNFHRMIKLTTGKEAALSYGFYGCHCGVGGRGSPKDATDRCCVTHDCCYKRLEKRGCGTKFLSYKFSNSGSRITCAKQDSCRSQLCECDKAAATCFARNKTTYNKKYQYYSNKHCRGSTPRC

[2] = system: HSV-1 (KOS); experiment: HSV-1 infection ELISA assay; format: cell-based, herpes simplex virus
[3] = system: HIV-1; conditions: Table 16; acute HIV assay; listed as ToToGoGoGoGoToT
[4] = Table 5, two separate experiments
[5] = Table 12, inosine-substituted oligonucleotides against HSV

| Substance | % Inhibition (1 μM) ([1]; Table 4) [%] | also measured |
| --- | --- | --- |
| 3694 (dA*dC*dA*dG*dC*dA*dG*dC*dT*dG*dT*dG*dA*dG*dG*dA*dG*dA*dC*dA*dC) [compound 3694] | 28.2 | – |
| GCCGAGGTCCATGTCGTACGC (GCCGAGGTCCATGTCGTACGC; chemistry not given here) [ISIS 1082, negative control oligonucleotide complementary to HSV UL13 translation initiation codon; has no runs of G, reference compound] | – | EC50 ([2]; b150, duplicate experiments): 2.5 µM and 1.8 µM |
| AGGTCGAGGAGTGGTCTGAGC (dA*dG*dG*dT*dC*dG*dA*dG*dG*dA*dG*dT*dG*dG*dT*dC*dT*dG*dA*dG*dC) [ISIS 3631] | – | I.C.50 relative to ISIS 3196 [1]: approximately 10 fold |
| 3181 (antisense dT*dC*dT*dG*dC*dC*dC*dC*dG*dG*dC*dC*dG*dT*dC*dG*dC*dT*dC*dC*dC) [compound 3181] | 42.7 | – |
| TTTTTGATTTGCTAATTGCTT (dT*dT*dT*dT*dT*dG*dA*dT*dT*dT*dG*dC*dT*dA*dA*dT*dT*dG*dC*dT*dT) [ISIS 3481] | – | effect on substrate kinetics [1]: did not modify the substrate kinetics |
| 4957 (dG*dG*dG*dT*dG*dG*dA*dT*dA*dT*dA*dG) [compound 4957] | – | % Inhibition (1 μM) [1, 4]: 81.9% |
| TT GGGG TT [ISIS 5671] | – | IC50 [3]: inactive |
| 3475 (dT*dC*dT*dC*dA*dT*dT*dC*dT*dG*dG*dG*dT*dG*dG*dG*dT*dA*dT*dA*dG) [compound 3475] | 67.0 | – |
| 4947 (dA*dG*dG*dT*dG*dG*dG*dT*dA*dT*dA*dG) [compound 4947] | – | % Inhibition (1 μM) [1, 4]: 22.7% |
| 5296 (GTTGGAGACCGGGGTTGGNG; DNA, [I] at 19, backbone not given here) [compound 5296] | – | EC50 [2, 5]: 0.8 µM |
| 3196 (dG*dG*dG*dT*dG*dG*dG*dT*dA*dT*dA*dG*dA*dA*dG*dG*dG*dC*dT*dC*dC) [compound 3196] | 98.5 | % Inhibition (1 μM) [1, 4]: 100% and 76.2% |
| 3712 (dA*dG*dG*dA*dG*dT*dC*dC*dT*dG*dT*dT*dT*dT*dG*dA*dA*dA*dT*dC*dA) [compound 3712] | 31.8 | – |
| 4955 (dG*dG*dG*dA*dG*dG*dG*dT*dA*dT*dA*dG) [compound 4955] | – | % Inhibition (1 μM) [1, 4]: 97.5% |
| 3473 (dC*dT*dG*dC*dC*dT*dG*dG*dC*dC*dT*dC*dT*dA*dG*dG*dA*dT*dG*dG*dG) [compound 3473] | 25.9 | – |
| 5310 (GTTGGAGACCGGGGTTGGGN; DNA, [I] at 20, backbone not given here) [compound 5310] | – | EC50 [2, 5]: 0.4 µM |
| 3669 (dG*dG*dT*dG*dA*dC*dA*dA*dA*dT*dG*dC*dA*dG*dA*dT*dG*dG*dA*dC*dT) [compound 3669] | 34.7 | – |
| 5309 (GTTGGAGACCGNGTTGGGG; inosine substitution, further chemistry not given here) [compound 5309] | – | EC50 [2, 5]: > 3 µM |
| GGGGGGTG [ISIS 5684] | – | ED50 ([2]; b190): approximately 0.6 μM |
| 3632 (dC*dC*dA*dG*dG*dA*dG*dA*dG*dG*dT*dC*dG*dG*dT*dA*dA*dG*dG*dC*dG) [compound 3632] | 29.2 | – |
| 3468 (dG*dG*dG*dA*dC*dT*dC*dA*dG*dC*dA*dA*dC*dG*dA*dG*dG*dG*dG*dT*dG) [compound 3468] | 97.5 | – |

| Substance | % Inhibition (1 μM) ([1]; Table 4) [%] | also measured |
| --- | --- | --- |
| 3481 (dT*dT*dT*dT*dT*dG*dA*dT*dT*dT*dG*dC*dT*dA*dA*dT*dT*dG*dC*dT*dT) [compound 3481] | 2.2 | – |
| 3671 (dT*dA*dG*dG*dA*dG*dG*dG*dT*dC*dT*dT*dC*dA*dT*dG*dG*dT*dA*dA*dG) [compound 3671] | 49.3 | – |
| 3633 (dG*dT*dA*dG*dG*dG*dA*dT*dG*dG*dG*dA*dG*dT*dG*dA*dA*dG*dG*dA*dG) [compound 3633] | 58.5 | – |
| 3665 (dG*dG*dA*dC*dT*dG*dG*dC*dC*dT*dA*dG*dC*dT*dC*dC*dT*dC*dT*dG*dC) [compound 3665] | 45.8 | – |
| 3477 (dG*dT*dG*dG*dA*dG*dG*dA*dG*dA*dG*dC*dA*dG*dT*dA*dG*dA*dA*dG*dG) [compound 3477] | 54.7 | – |
| 4962 (dG*dG*dG*dT*dG*dG*dG*dT*dA*dT) [compound 4962] | – | % Inhibition (1 μM) [1, 4]: 36.3% |
| 3479 (dC*dC*dG*dG*dA*dG*dT*dA*dC*dA*dG*dC*dT*dT*dC*dT*dT*dT*dG*dG*dT) [compound 3479] | 42.3 | – |
| 3663 (dC*dT*dC*dT*dG*dC*dT*dG*dG*dG*dT*dG*dG*dT*dC*dT*dC*dA*dA*dC*dT) [compound 3663] | 16.3 | – |
| 3679 (dA*dG*dT*dA*dG*dG*dC*dC*dT*dG*dG*dA*dA*dG*dG*dA*dA*dA*dT*dT*dT) [compound 3679] | 30.3 | – |
| GGG T GGG T ATA G AAG G GCT CC (GGGTGGGTATAGAAGGGCTCC; chemistry not given here) [ISIS 3196] | – | inhibition of enzyme activity [1]: completely inhibited; inhibition ([1]; boiling water for 15 minutes prior to addition to the assay): 21%; effect on substrate kinetics [1]: apparent noncompetitive inhibitor; inhibition ([1]; native, not boiled): 94% |
| 3470 (dG*dT*dA*dG*dG*dG*dA*dG*dG*dG*dA*dG*dG*dG*dT*dA*dT*dG*dA*dG*dA) [compound 3470] | 88.9 | – |
| 3628 (dG*dG*dA*dG*dC*dC*dC*dT*dT*dC*dT*dA*dT*dA*dC*dC*dC*dA*dC*dC*dC) [compound 3628] | 13.6 | I.C.50 relative to ISIS 3196 [1]: approximately 10 fold |
| 3630 (dT*dC*dT*dC*dA*dT*dA*dC*dC*dC*dT*dC*dC*dC*dT*dC*dC*dC*dT*dA*dC) [compound 3630] | 17.6 | – |
| 4149 (dC*dT*dA*dC*dG*dG*dC*dA*dG*dA*dG*dA*dC*dG*dA*dG*dA*dT*dA*dG*dC) [compound 4149] | 20.2 | – |
| 3697 (dA*dC*dT*dC*dT*dT*dA*dC*dC*dA*dC*dA*dG*dG*dT*dG*dA*dT*dT*dC*dT) [compound 3697] | 39 | – |
| 3688 (dT*dG*dG*dC*dC*dT*dC*dA*dC*dC*dG*dA*dT*dC*dC*dG*dT*dT*dG*dC*dA) [compound 3688] | 43.1 | – |
| 3192 (dG*dG*dA*dA*dG*dG*dT*dT*dT*dC*dC*dA*dG*dG*dG*dA*dA*dG*dA*dG*dG) [compound 3192] | 28.1 | – |
| 3471 (dA*dA*dG*dG*dA*dA*dC*dT*dT*dG*dG*dT*dT*dA*dG*dG*dG*dT*dA*dG*dG) [compound 3471] | 34.5 | – |
| 3476 (dG*dC*dT*dG*dG*dA*dA*dA*dT*dC*dT*dG*dC*dT*dG*dG*dA*dT*dG*dT*dC) [compound 3476] | 43.4 | – |
| GTAGGGAGGGAGGGTATGAGA (dG*dT*dA*dG*dG*dG*dA*dG*dG*dG*dA*dG*dG*dG*dT*dA*dT*dG*dA*dG*dA) [ISIS 3470] | – | inhibition of enzyme activity [1]: completely inhibited |

| Substance | % Inhibition (1 μM) ([1]; Table 4) [%] | also measured |
| --- | --- | --- |
| 4133 (dA*dG*dT*dG*dC*dA*dC*dG*dT*dT*dG*dA*dG*dT*dA*dT*dG*dT*dG*dA*dG) [compound 4133] | 37.3 | – |
| 3478 (dT*dG*dG*dT*dT*dA*dA*dG*dC*dA*dC*dG*dG*dA*dG*dT*dT*dG*dA*dG*dG) [compound 3478] | 26.4 | – |
| 3676 (dA*dG*dC*dT*dC*dT*dT*dA*dC*dC*dA*dA*dA*dG*dA*dT*dC*dA*dT*dG*dA) [compound 3676] | 24.5 | – |
| 4946 (dG*dG*dG*dT*dG*dG*dG*dA*dA*dT*dA*dG) [compound 4946] | – | % Inhibition (1 μM) [1, 4]: 73.2% |
| 3182 (antisense dC*dA*dG*dA*dG*dG*dA*dC*dT*dC*dC*dA*dG*dA*dG*dT*dT*dG*dT*dA*dT) [compound 3182] | 30.2 | – |
| GTGGAGGAGAGCAGTAGAAGG (dG*dT*dG*dG*dA*dG*dG*dA*dG*dA*dG*dC*dA*dG*dT*dA*dG*dA*dA*dG*dG) [ISIS 3477] | – | inhibition of enzyme activity [1]: 54.7% |
| 3631 (dA*dG*dG*dT*dC*dG*dA*dG*dG*dA*dG*dT*dG*dG*dT*dC*dT*dG*dA*dG*dC) [compound 3631] | 20.7 | – |
| 4672 (dG*dG*dG*dT*dG*dG*dG*dT*dA*dT*dA*dG) [compound 4672] | – | % Inhibition (1 μM) [1, 4]: 73.9% and 94.6% |
| 4956 (dG*dG*dG*dC*dG*dG*dG*dT*dA*dT*dA*dG) [compound 4956] | – | % Inhibition (1 μM) [1, 4]: 92.0% |
| 3480 (dT*dT*dG*dC*dT*dT*dT*dA*dT*dT*dC*dA*dG*dA*dA*dG*dA*dG*dA*dC*dC) [compound 3480] | 24.5 | – |
| 3193 (dC*dC*dT*dG*dC*dA*dG*dT*dA*dG*dG*dC*dC*dT*dG*dG*dA*dA*dG*dG*dA) [compound 3193] | 22.6 | – |
| 3629 (dC*dA*dC*dC*dC*dC*dT*dC*dG*dT*dT*dG*dC*dT*dG*dA*dG*dT*dC*dC*dC) [compound 3629] | 20.5 | – |
| 3472 (dT*dG*dG*dG*dT*dG*dA*dG*dG*dG*dA*dT*dG*dC*dT*dT*dT*dC*dT*dG*dC) [compound 3472] | 69.0 | – |
| 3474 (dA*dT*dA*dG*dA*dA*dG*dG*dG*dC*dT*dC*dC*dT*dG*dC*dC*dT*dG*dG*dC) [compound 3474] | 13.3 | – |
| 3185 (antisense CAAAGATCATGATCACTGCCA; phosphorothioate, chemistry not fully specified) [compound 3185] | 22.7 | – |
| 3659 (dT*dG*dC*dT*dC*dC*dT*dC*dC*dT*dT*dG*dG*dT*dG*dG*dC*dT*dC*dT*dC) [compound 3659] | 38.2 | – |
| 3184 (antisense dT*dT*dC*dA*dT*dG*dG*dT*dA*dA*dG*dA*dG*dT*dT*dC*dT*dT*dG*dG*dG) [compound 3184] | 25.1 | – |
| ISIS 1573: phosphorothioate deoxyoligonucleotide, SEQ ID NO: 120 (DNA dG*dA*dG*dG*dC*dT*dG*dA*dG*dG*dT*dG*dG*dG*dA*dG*dG*dA) | – | inhibition of phospholipase A2 ([1]; concentrations as high as 10 μM): did not significantly inhibit |
